Consider 14 compounds from patent US5258383A, “DC-89 derivatives” (priority 1991, dated 1993).

The test system of one series is melanoma B-16. The note with it: against melanoma B-16; cited from earlier work.
The subject of the next series is various bacteria. The conditions noted are these: against various bacteria / a variety of bacteria; cited from earlier work.
The test system of the next series is Sarcoma 180 tumor. The series can be described thus: Therapeutic Effect against Sarcoma 180 Tumor. The conditions noted are these: intravenous, single administration one day after implantation, determined seven days after implantation. The class given is in vivo, male ddY-strain mice. On the procedure: Five male ddY-strain mice each weighing 18 to 20 g were used for each group as test animals, and 5×10^5 Sarcoma 180 tumor cells were implanted subcutaneously into the animals at the axilla. One day after the implantation, 0.2 ml of physiological saline containing Compound (I) at the concentration indicated in Table 2 was intravenously administered to each mouse. T/C [T: average tumor volume (mm^3) of the group treated with the test compound, C: average tumor volume (mm^3) of the control group which received an intravenous administration of 0.2 ml of physiological saline]was determined seven days after the implant

The test system of a further series is ddY-strain male mice. The series can be described thus: Acute Toxicity Test. It counts as in vivo. The note with it: intravenous; mortality observed for 14 days. On the procedure: A test compound was intravenously administered to ddY-strain male mice each weighing 20±1 g. MLD (the minimum lethal dose) was determined by observing the mortality for 14 days after the administration.

Another series has as its system HeLaS3 cells. As to the kind of experiment: Growth Inhibitory Effect against HeLaS3 Cells. The class given is cell-based. The note with it: Homo sapiens, HeLa S3; 72 hours, Neutral Red staining. On the procedure:
HeLaS3 cells were suspended in a medium comprising MEM medium, 10% fetal calf serum and 2 mM glutamine (hereinafter referred to as medium A) to a concentration of 3×10^4 cells/ml. The cell suspension thus prepared was put into wells of a 96-well microtiter plate in an amount of 0.1 ml per well. After incubation at 37° C. for 20 hours in a CO2 incubator, Compound (I) appropriately diluted with medium A was added to each well in an amount of 0.05 ml.
The cells were further cultured at 37° C. for 72 hours in the CO2 -incubator and the culture supernatant was removed. After the residue was washed once with phosphate buffer saline (PBS), a medium comprising medium A and 0.02% Neutral Red was added in an amount of 0.1 ml per well. Then, the cells were cultured at 37° C. for one hour in the CO2 -incubator, whereby the cells were stained. After removal of the culture supernatant, the residue was washed once with physiological saline. The pigment was extracted with 0.001N hydrochloric acid/30% ethanol and the absorbance of the extract was measured at 550 nm using a microplate reader. The concentration of the test compound at which the growth of the cells is inhibited by 50% (IC50) was calculated by comparing the absorbance of untreated cells with those of the cells treated with the test compound at known concentrations.

For the compound `COC(=O)C1(C)Nc2c(O)cc3c(c2C1=O)CC(Br)CN3C(=O)c1cc2cc(OC)c(OC)c(OC)c2[nH]1` (stereo not shown) [DC-89B1], in the series on melanoma B-16, the antitumor activity entry is given as “show an antitumor activity against melanoma B-16”. The antibacterial activity entry in the series on various bacteria was “exhibit an antibacterial activity against various bacteria”.
For the compound `COC(=O)c1c(C)[nH]c2c(OC(=O)Nc3ccccc3)cc3c(c12)C(CBr)CN3C(=O)/C=C/c1ccc(OC)cc1` (stereo not shown) [Compound 12], in the series on Sarcoma 180 tumor (2.0 mg/kg), the “T/C (average tumor volume treated / control)” value is on record as 0.25. In addition, the “Acute Toxicity (MLD), minimum lethal dose” value (shortened to “Acute Toxicity (MLD)”) in the series on ddY-strain male mice came out at 2.0 mg/kg.
For the compound `COC(=O)C1(C)Nc2c(O)cc3c(c2C1=O)C(CBr)CN3C(=O)c1cc2cc(OC)c(OC)c(OC)c2[nH]1` (stereo not shown) [DC-89B2], the antitumor activity result in the series with melanoma B-16 is given as “show an antitumor activity against melanoma B-16”. The antibacterial activity entry in the series on various bacteria is listed as “exhibit an antibacterial activity against various bacteria”.
For the compound `COC(=O)c1c(C)[nH]c2c(OC(=O)N3CCN(CC(=O)NC(C)C)CC3)cc3c(c12)C(CBr)CN3C(=O)/C=C/c1ccc(OC)cc1` (stereo not shown) [Compound 11], the “T/C (average tumor volume treated / control)” value with Sarcoma 180 tumor (8.0 mg/kg) is listed as 0.12. The “Acute Toxicity (MLD)” value in the series on ddY-strain male mice is above 8.0 mg/kg.
With `COC(=O)c1c(C)[nH]c2c1C13CC1CN(C(=O)/C=C/c1ccc(OC)cc1)C3=CC2=O` (stereo not shown) [Compound 2], the half-maximal inhibitory concentration (IC50) in the series on HeLaS3 cells amounted to 0.18 nM. The “Acute Toxicity (MLD)” value with ddY-strain male mice is recorded as 2.0 mg/kg.
On to `COC(=O)c1c(C)[nH]c2c(OC(=O)N3CCCCC3)cc3c(c12)C(CBr)CN3C(=O)/C=C/c1ccc(OC)cc1` (stereo not shown) [Compound 4], for which, in the series on HeLaS3 cells, the IC50 is below 0.24 nM. Further, the “Acute Toxicity (MLD)” value in the series on ddY-strain male mice is listed as above 8.0 mg/kg.
As for `COC(=O)c1c(C)[nH]c2c(OC(=O)N(C)C)cc3c(c12)C(CBr)CN3C(=O)/C=C/c1ccc(OC)cc1` (stereo not shown) [Compound 3], the “T/C (average tumor volume treated / control)” value in the series on Sarcoma 180 tumor (8.0 mg/kg) is 0.027. The compound further had an IC50 with HeLaS3 cells of 11 nM. For the same compound, the “Acute Toxicity (MLD)” value in the series with ddY-strain male mice is above 8.0 mg/kg.
`COC(=O)C1(C)Nc2c(O)cc3c(c2C1=O)CC(Cl)CN3C(=O)c1cc2cc(OC)c(OC)c(OC)c2[nH]1` (stereo not shown) [DC-89Al]: in the series on melanoma B-16, the antitumor activity result was “show an antitumor activity against melanoma B-16”. The antibacterial activity result in the series with various bacteria is reported as “exhibit an antibacterial activity against various bacteria”.
For `COC(=O)c1c(C)[nH]c2c(OC(=O)N3CCC(N4CCCCC4)CC3)cc3c(c12)C(CBr)CN3C(=O)/C=C/c1ccc(OC)cc1` (stereo not shown) [Compound 9], the “T/C (average tumor volume treated / control)” value in the series with Sarcoma 180 tumor (4.0 mg/kg) is reported as 0.17. The “Acute Toxicity (MLD)” value in the series on ddY-strain male mice is on record as 4.0 mg/kg.
In the case of `COC(=O)c1c(C)[nH]c2c(OC(=O)N3CCCC3)cc3c(c12)C(CBr)CN3C(=O)/C=C/c1ccc(OC)cc1` (stereo not shown) [Compound 5], in the series with ddY-strain male mice, the “Acute Toxicity (MLD)” value is on record as above 8.0 mg/kg.
Take `COC(=O)c1cc2c([nH]1)C(=O)C=C1N(C(=O)c3cc4cc(OC)c(OC)c(OC)c4[nH]3)CC3CC123` (stereo not shown) [DC113]: the antitumor activity entry in the series with melanoma B-16 is listed as “exhibit an anti-tumor activity against melanoma B-16”. Besides, the antibacterial activity result with various bacteria is given as “show an antibacterial activity against a variety of bacteria”.
`COC(=O)C1(C)Nc2c(O)cc3c(c2C1=O)C(CCl)CN3C(=O)c1cc2cc(OC)c(OC)c(OC)c2[nH]1` (stereo not shown) [DC-89A2]: the antitumor activity result in the series on melanoma B-16 is given as “show an antitumor activity against melanoma B-16”. Besides, the antibacterial activity entry with various bacteria was “exhibit an antibacterial activity against various bacteria”.
As to `COC(=O)c1c(C)[nH]c2c(OC(=O)N3CCN(C)CC3)cc3c(c12)C(CBr)CN3C(=O)/C=C/c1ccc(OC)cc1` (stereo not shown) [Compound 7], in the series on Sarcoma 180 tumor (4.0 mg/kg), the “T/C (average tumor volume treated / control)” value turned out to be 0.20. In addition, the “Acute Toxicity (MLD)” value in the series with ddY-strain male mice stood at 8.0 mg/kg.
With `COC(=O)C1(C)NC2=C(C1=O)C13CC1CN(C(=O)c1cc4cc(OC)c(OC)c(OC)c4[nH]1)C3=CC2=O` (stereo not shown) [DC-88A], in the series on melanoma B-16, the antitumor activity entry is listed as “exhibit an anti-tumor activity against melanoma B-16”. For the same compound, in the series on various bacteria, the antibacterial activity entry is “show an antibacterial activity against a variety of bacteria”.
